Experimental data as given in the supplement of paper PMC11061612.

What was measured:
Capivasertib = compound: C1CN(CCC1(C(=O)N[C@@H](CCO)C2=CC=C(C=C2)Cl)N)C3=NC=NC4=C3C=CN4 [Capivasertib]; conditions: max 10 µM
In short: (§1)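 In 1536-well plates, cancer cell lines in 7.5 μl DMEM/F12 or RPMI with 10% FBS spent 24 hours at 37°C and 5% CO2 and were then dosed for 72 hours with final DMSO typically 0.2%. Viability was read by CellTiter-Glo 2.0 luminescence and scaled between blank-well and DMSO-well means. The single-agent IC50 was fitted from dose responses using a logistic curve in a non-linear mixed effects model, and that logistic curve had two parameters.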

AZD1775 = compound: C=CCn1c(=O)c2cnc(Nc3ccc(N4CCN(C)CC4)cc3)nc2n1-c1cccc(C(C)(C)O)n1 [AZD1775]; conditions: max 3 µM
In short: as §1

Trametinib = compound: CC(=O)Nc1cccc(-n2c(=O)n(C3CC3)c(=O)c3c(Nc4ccc(I)cc4F)n(C)c(=O)c(C)c32)c1 [Trametinib]; conditions: max 1 µM
In short: as §1

Palbociclib = compound: CC(=O)c1c(C)c2cnc(Nc3ccc(N4CCNCC4)cn3)nc2n(C2CCCC2)c1=O [Palbociclib]; conditions: max 10 µM
In short: as §1

AZD1390 = compound: CC(C)n1c(=O)n(C)c2cnc3cc(F)c(-c4ccc(OCCCN5CCCCC5)nc4)cc3c21 [AZD1390]; conditions: max 0.3 µM
In short: as §1

Venetoclax = compound: CC1(C)CCC(CN2CCN(c3ccc(C(=O)NS(=O)(=O)c4ccc(NCC5CCOCC5)c([N+](=O)[O-])c4)c(Oc4cnc5[nH]ccc5c4)c3)CC2)=C(c2ccc(Cl)cc2)C1 [Venetoclax]; conditions: max 1 µM
In short: as §1

Dasatinib = compound: CC1=C(C(=CC=C1)Cl)NC(=O)C2=CN=C(S2)NC3=CC(=NC(=N3)C)N4CCN(CC4)CCO [Dasatinib]; conditions: max 2 µM
In short: as §1

SG3199 = compound: CC1=CN2[C@@H](C1)C=NC3=CC(=C(C=C3C2=O)OC)OCCCCCOC4=C(C=C5C(=C4)N=C[C@@H]6CC(=CN6C5=O)C)OC [SG3199]; conditions: max 0.001 µM
In short: as §1

AZD2811 = compound: CCN(CCO)CCCOc1ccc2c(Nc3cc(CC(=O)Nc4cccc(F)c4)[nH]n3)ncnc2c1 [AZD2811]; conditions: max 1 µM
In short: as §1

SN-38 = compound: CCc1c2c(nc3ccc(O)cc13)-c1cc3c(c(=O)n1C2)COC(=O)[C@]3(O)CC [SN-38]; conditions: max 0.3 µM
In short: as §1

AZD0156 = compound: CN(C)CCCOc1ccc(-c2ccc3ncc4c(c3c2)n(C2CCOCC2)c(=O)n4C)cn1 [AZD0156]; conditions: max 3 µM
In short: as §1

AZD4320 = compound: CN(CC[C@H](CSC1=CC=CC=C1)NC2=C(C=C(C=C2)S(=O)(=O)NC(=O)C3=CC=C(C=C3)N4CCC(CC4)[C@H](C5=CC=CC=C5C6=CC=C(C=C6)Cl)O)S(=O)(=O)C(F)(F)F)CCO [AZD4320]; conditions: max 1 µM
In short: as §1

Alisertib = compound: COc1cc(Nc2ncc3c(n2)-c2ccc(Cl)cc2C(c2c(F)cccc2OC)=NC3)ccc1C(=O)O [Alisertib]; conditions: max 10 µM
In short: as §1

Gefitinib = compound: COc1cc2ncnc(Nc3ccc(F)c(Cl)c3)c2cc1OCCCN1CCOCC1 [Gefitinib]; conditions: max 10 µM
In short: as §1

Prexasertib = compound: COc1cccc(OCCCN)c1-c1cc(Nc2cnc(C#N)cn2)n[nH]1 [Prexasertib]; conditions: max 1 µM
In short: as §1

Doxorubicin = compound: COc1cccc2c1C(=O)c1c(O)c3c(c(O)c1C2=O)C[C@@](O)(C(=O)CO)C[C@@H]3O[C@H]1C[C@H](N)[C@H](O)[C@H](C)O1 [Doxorubicin]; conditions: max 1 µM
In short: as §1

AZD5153 = compound: COc1nnc2ccc(N3CCC(c4ccc(OCCN5CCN(C)C(=O)[C@H]5C)cc4)CC3)nn12 [AZD5153]; conditions: max 1 µM
In short: as §1

Lapatinib = compound: CS(=O)(=O)CCNCc1ccc(-c2ccc3ncnc(Nc4ccc(OCc5cccc(F)c5)c(Cl)c4)c3c2)o1 [Lapatinib]; conditions: max 10 µM
In short: as §1

AZD8186 = compound: C[C@@H](Nc1cc(F)cc(F)c1)c1cc(C(=O)N(C)C)cc2c(=O)cc(N3CCOCC3)oc12 [AZD8186]; conditions: max 3 µM
In short: as §1

Crizotinib = compound: C[C@@H](Oc1cc(-c2cnn(C3CCNCC3)c2)cnc1N)c1c(Cl)ccc(F)c1Cl [Crizotinib]; conditions: max 10 µM
In short: as §1

Savolitinib = compound: C[C@@H](c1ccc2nccn2c1)n1nnc2ncc(-c3cnn(C)c3)nc21 [Savolitinib]; conditions: max 1 µM
In short: as §1

AZD6738 = compound: C[C@@H]1COCCN1C2=NC(=NC(=C2)C3(CC3)[S@](=N)(=O)C)C4=C5C=CNC5=NC=C4 [AZD6738]; conditions: max 10 µM
In short: as §1

AZD5991 = compound: Cc1c2c(nn1C)CSCc1cc(n(C)n1)CSc1cc(c3ccccc3c1)OCCCc1c(C(=O)O)n(C)c3c-2c(Cl)ccc13 [AZD5991]; conditions: max 1 µM
In short: as §1

AZD7648 = compound: Cc1cc2ncnn2cc1Nc1ncc2c(n1)n(C1CCOCC1)c(=O)n2C [AZD7648]; conditions: max 10 µM
In short: as §1

Taselisib = compound: Cc1nc(-c2cn3c(n2)-c2ccc(-c4cnn(C(C)(C)C(N)=O)c4)cc2OCC3)n(C(C)C)n1 [Taselisib]; conditions: max 10 µM
In short: as §1

Selumetinib = compound: Cn1cnc2c(F)c(Nc3ccc(Br)cc3Cl)c(C(=O)NOCCO)cc21 [Selumetinib]; conditions: max 10 µM
In short: as §1

Olaparib = compound: O=C(c1cc(Cc2n[nH]c(=O)c3ccccc23)ccc1F)N1CCN(C(=O)C2CC2)CC1 [Olaparib]; conditions: max 10 µM
In short: as §1

Cell Line	IC50, cell viability 72 h (Capivasertib) [µM]	IC50, cell viability 72 h (AZD1775) [µM]	IC50, cell viability 72 h (Trametinib) [µM]	IC50, cell viability 72 h (Palbociclib) [µM]	IC50, cell viability 72 h (AZD1390) [µM]	IC50, cell viability 72 h (Venetoclax) [µM]	IC50, cell viability 72 h (Dasatinib) [µM]	IC50, cell viability 72 h (SG3199) [µM]	IC50, cell viability 72 h (AZD2811) [µM]	IC50, cell viability 72 h (SN-38) [µM]	IC50, cell viability 72 h (AZD0156) [µM]	IC50, cell viability 72 h (AZD4320) [µM]	IC50, cell viability 72 h (Alisertib) [µM]	IC50, cell viability 72 h (Gefitinib) [µM]	IC50, cell viability 72 h (Prexasertib) [µM]	IC50, cell viability 72 h (Doxorubicin) [µM]	IC50, cell viability 72 h (AZD5153) [µM]	IC50, cell viability 72 h (Lapatinib) [µM]	IC50, cell viability 72 h (AZD8186) [µM]	IC50, cell viability 72 h (Crizotinib) [µM]	IC50, cell viability 72 h (Savolitinib) [µM]	IC50, cell viability 72 h (AZD6738) [µM]	IC50, cell viability 72 h (AZD5991) [µM]	IC50, cell viability 72 h (AZD7648) [µM]	IC50, cell viability 72 h (Taselisib) [µM]	IC50, cell viability 72 h (Selumetinib) [µM]	IC50, cell viability 72 h (Olaparib) [µM]
CAL-27 (Oral Cavity Carcinoma)	> 10	1.85	0.129	> 10	> 0.3	> 1	0.431	> 0.001	0.608	0.0136	> 3	> 1	0.443	0.839	0.894	0.927	0.426	0.933	> 3	> 10	> 1	> 10	0.413	> 10	0.854	1.89	> 10
huH-1 (Hepatocellular Carcinoma)	> 10	2.52	> 1	> 10	> 0.3	> 1	> 2	> 0.001	> 1	0.068	> 3	> 1	> 10	> 10	0.093	> 1	> 1	> 10	> 3	> 10	> 1	5.64	> 1	> 10	> 10	> 10	> 10
5637 (Bladder Carcinoma)	> 10	0.385	> 1	> 10	> 0.3	> 1	0.26	> 0.001	0.251	0.0379	> 3	> 1	1.01	> 10	0.0532	> 1	0.9	7.56	> 3	> 10	> 1	6.46	> 1	> 10	8.9	> 10	> 10
HT55 (Colorectal Carcinoma)	> 10	0.659	0.0301	9.65	> 0.3	> 1	> 2	> 0.001	> 1	> 0.3	> 3	> 1	> 10	> 10	0.268	> 1	0.646	1.75	> 3	> 10	> 1	> 10	> 1	> 10	0.753	1.15	> 10
